According to patent US7138541B2, “Surface coating agents” (SurModics, Inc., priority 1999, dated 2006):

System: coagulation cascade (intrinsic and common pathways of coagulation)
Assay: Partial thromboplastin time (PTT) test of coating agents
Type: biochemical
Conditions: for Extension of control PTT (in words): versus the respective solvent control, both concentrations tested
Experimental: A useful test in determining the hemocompatibility of a reagent is the partial thromboplastin time (PTT) test. The PTT is a test of the intrinsic (factors VIII, IX, XI, and XII) and common (fibrinogen, prothrombin, factors V and X) pathways of coagulation. A mixture of plasma and phospholipid platelet substitute (rabbit brain cephalin) is recalcified and the time required for the appearance of fibrin strands measured.
The PTT was tested to determine whether Compound I or Compound II have the ability to extend the control PTT. A test tube of rabbit brain cephalin (Sigma #RBC) in 0.85% NaCl and a test tube of 0.02 M CaCl2 was brought to 37° C. in a water bath. Dade Ci-trol coagulation control lyophilized plasma (Dade International, Inc., product no. 34224-10) was reconstituted in sterile deionized water. In 10×75 mm glass test tubes, 100 μl reconstituted plasma and 100 μl RBC were mixed and incubated at 37° C. in a water bath for 5 minutes. Next, 50 μl of sample (deionized water, a photocrosslinkable polyvinylpyrrolidone (available from SurModics, Inc., product no. PVO5), or Compound I or II) was added and mixed. While simultaneously starting a stop watch, 100 μl of 0.02 M CaCl2 was added to initiate the clotting cascade. After 40 seconds had passed, the test tubes were shaken lightly, observed for fibrin formation, and the number of seconds was recorded.
All samples were tested in duplicate. The appropriate control PTT, depending upon what solvent in which the reagent was dissolved, was subtracted from the average PTT for the reagent to give the time the control PTT was extended.

| Compound | Extension of control PTT (in words) | Extension of 50% IPA control PTT (higher of the two final concentrations tested, 50% IPA control) [h] |
| --- | --- | --- |
| O=C(c1ccccc1)c1ccc(COc2cc(S(=O)(=O)[O-])cc(S(=O)(=O)[O-])c2OCc2ccc(C(=O)c3ccccc3)cc2)cc1.[K+].[K+] [Compound I, 4,5-bis(4-benzoylphenylmethyleneoxy) benzene-1,3-disulfonic acid disodium salt] | considerably extend | – |
| O=C(c1ccccc1)c1ccc(COc2cc(S(=O)(=O)[O-])c(OCc3ccc(C(=O)c4ccccc4)cc3)cc2S(=O)(=O)[O-])cc1.[K+].[K+] [Compound II, 2,5-bis(4-benzoylphenylmethyleneoxy) benzene-1,4-disulfonic acid dipotassium salt] | considerably extend | 1 |
